Measurements from patent publication US5912161A, “Enzymes for the production of 2-keto-L-gulonic acid” (priority 1996, dated 1999).

Experiments:
[1] = molecular target: T1, Corynebacterium sp. (ATCC 31090) 2,5-DKG reductase A, wild type, SEQ ID NO:1 (Corynebacterium sp., UniProt P06632); assay: Kinetic characterization of purified wild-type 2,5-DKG reductase A (NADPH oxidation at 340 nm); format: biochemical; conditions: wild-type enzyme, 50 mM tris, pH 7.0, 0.2 mM NADPH, 25° C.
T1 construct: made in house; host or cells: Acetobacter cerinus
Experimental: (§1) The preparations of wild-type and mutant Q192R 2,5-DKG reductase A enzymes were characterized kinetically as to their ability to reduce the substrate 2,5-DKG to 2-KLG. Assays were done in 1 ml total volume of 50 mM tris, pH 7.0, containing 0.2 mM NADPH, a constant amount of enzyme ([…]) and amounts of substrate varying from 2 to 14 mM. The assays were done at 25° C., and the rate of substrate reduction was measured spectrophotometrically by measuring the loss of absorbance at 340 nm wavelength (which is indicative of the oxidation of the cofactor NADPH to NADP+).
(§2) The data were analyzed according to the well-known Michaelis equation to determine the kinetic parameters Vmax and Km using the Enzfit software package (Biosoft, Cambridge, UK) on a Epson desktop computer.

[2] = molecular target: T2, Corynebacterium sp. 2,5-DKG reductase A mutant Q192R (arginine for glutamine at position 192) (Corynebacterium sp., UniProt P06632, Q192R); assay: Kinetic characterization of purified mutant Q192R 2,5-DKG reductase A (NADPH oxidation at 340 nm); format: biochemical; conditions: 50 mM tris, pH 7.0, 0.2 mM NADPH, 25° C.
T2 construct: made in house; host or cells: Acetobacter cerinus
Experimental: as §1, §2

T1 sequence (P06632 whole entry): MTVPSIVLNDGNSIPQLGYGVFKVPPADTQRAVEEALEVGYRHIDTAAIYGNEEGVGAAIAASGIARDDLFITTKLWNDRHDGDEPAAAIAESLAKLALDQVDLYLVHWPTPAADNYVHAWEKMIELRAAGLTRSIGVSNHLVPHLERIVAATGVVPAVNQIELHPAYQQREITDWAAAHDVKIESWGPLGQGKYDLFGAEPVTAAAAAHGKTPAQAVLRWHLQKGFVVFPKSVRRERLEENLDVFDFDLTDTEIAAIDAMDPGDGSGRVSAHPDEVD
T2 sequence (P06632 whole entry Q192R): as the sequence (P06632 whole entry) above, with Q192R counted along it

SMILES: O=C(O)C(=O)[C@@H](O)[C@H](O)C(=O)CO [2,5-DKG, 2,5-diketo-D-gluconic acid]
- specificity constant (kcat/Km) [1]: 140 M⁻¹ s⁻¹
- Vmax for the 2,5-DKG substrate ([1]; substrate 2 to 14 mM): 7.8 μmoles per minute per milligram of protein
- Km ([1]; substrate 2 to 14 mM, read-out: Km or Michaelis constant): 28 mM
- specificity constant (kcat/Km) [2]: 335 M⁻¹ s⁻¹
- Km ([2]; substrate 2 to 14 mM): 21 mM
- Vmax for the 2,5-DKG substrate ([2]; substrate 2 to 14 mM): 14.0 μmoles per minute per milligram of protein
